Earlier results as cited in paper PMC10238757 (Pharmacology Research & Perspectives, 2023).

Assays:
[1] = at higher doses; cited from earlier work
HIV-1 = conditions: cited from earlier work

| SMILES | absorption behaviour [1] | potency in vitro (HIV-1) |
| --- | --- | --- |
| C=C(C)[C@@H]1CC[C@]2(NCCN3CCS(=O)(=O)CC3)CC[C@]3(C)[C@H](CC[C@@H]4[C@@]5(C)CC=C(c6ccc(C(=O)O)cc6)C(C)(C)[C@@H]5CC[C@]43C)[C@@H]12 [GSK3532795] | plateaus in absorption |  |
| C=C(C)[C@@H]1CC[C@]2(NCCN3CCS(=O)(=O)CC3)CC[C@]3(C)[C@H](CC[C@@H]4[C@@]5(C)CC=C(C6=CC[C@@](CF)(C(=O)O)CC6)C(C)(C)[C@@H]5CC[C@]43C)[C@@H]12 [GSK3640254, reference compound] | plateaus in absorption | low nanomolar |
